Experimental data taken from US20260091086A1, “POLYPEPTIDE COMBINATIONS AND USES THEREOF” (MEDIMMUNE LIMITED, priority 2024, published 2026).
Numbered stars: 1 amine (or outer) side, 2 acyl side, 3 side chain; on linkers, the order of the positions; unused ones are H or OH. Bridge positions count the residues as written; N and C are the ends. Square brackets hold non-standard residues; d marks the D form. Side chains are listed from the residue outwards. Ends that are not written are not given here. * marks the point of attachment. C18 diacid = O=C(O)CCCCCCCCCCCCCCCCC(=O)*; γGlu = O=C(O)[C@H](CCC(=O)[*:2])N[*:1]; αMeF = C[C@](N)(Cc1ccccc1)C(=O)O

B1: LAA/SARA 1 (lipidated pramlintide analogue of SEQ ID NO: 11) (peptide)
peptide: K([γGlu-γGlu-C18 diacid])CNTATCATQRLANFLRHSSNN[αMeF]GPILPPTEVGSNTY-NH2
modifications: disulfide 2-7
B2: Pramlintide (peptide)
peptide: KCNTATCATQRLANFLVHSSNNFGPILPPTNVGSNTY-NH2
modifications: disulfide 2-7

Experiments:
[1] = test system: High-fat diet (DIO) fed rats; assay: Example 9: 4-week LAA or DACRA monotherapy in DIO rats; format: in vivo, rat; settings: for BW reduction compared to vehicle / reduction of cumulative food intake: 4 weeks; for proportion of body weight loss that was fat-mass specific: FIG. 8C
Source text: Study 1 Design: High-fat diet (DIO) fed rats were used to profile LAA or DACRA monotherapy to evaluate food intake, body weight-lowering and body composition effects in a 4-week study. In this experiment, the LAA was that of SEQ ID NO: 11 and the DACRA was cagrilintide.

rat calcitonin receptor = target: T1, rat calcitonin receptor (Rattus norvegicus, UniProt P32214); assay: Target engagement estimate (unbound Cmax / unbound in vitro potency), calcitonin receptor; settings: DACRA 10 nmol/kg vs LAA 30 nmol/kg
T1 construct: expressed in transfected cells; host or cells: HEK293
T1 sequence (P32214 25-516): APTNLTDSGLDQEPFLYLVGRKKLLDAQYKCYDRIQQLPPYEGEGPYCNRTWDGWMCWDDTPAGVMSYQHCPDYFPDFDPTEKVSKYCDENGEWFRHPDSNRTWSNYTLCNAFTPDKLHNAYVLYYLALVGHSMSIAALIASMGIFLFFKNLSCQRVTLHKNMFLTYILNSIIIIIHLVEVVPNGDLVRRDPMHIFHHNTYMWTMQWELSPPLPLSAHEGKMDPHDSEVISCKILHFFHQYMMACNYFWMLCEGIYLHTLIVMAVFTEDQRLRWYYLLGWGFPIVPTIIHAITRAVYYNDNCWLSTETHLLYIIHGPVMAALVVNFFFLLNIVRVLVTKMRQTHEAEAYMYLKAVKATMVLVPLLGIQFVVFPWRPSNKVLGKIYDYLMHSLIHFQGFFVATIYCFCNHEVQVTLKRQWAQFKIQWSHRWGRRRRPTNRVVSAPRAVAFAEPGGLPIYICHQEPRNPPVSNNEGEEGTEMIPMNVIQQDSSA
Method: Target engagement was estimated in the following way for each compound. The maximum concentration (Cmax) after subcutaneous injection was measured in separate rat pharmacokinetic studies and was dose-adjusted to the tested dose levels when appropriate, assuming dose linearity. Plasma protein binding was determined in vitro using 3B Pharmaceutical's Escalate Equilibrium Shift Assay or an in-house Surface Plasmon Resonance (SPR) assay. Peptide in vitro potency was determined via HTRF CAMP accumulation assay using HEK293 cells recombinantly expressing the rat calcitonin receptor or rat amylin receptor (calcitonin receptor plus RAMP3) in saline buffer containing 0.1% bovine serum albumin. The in vitro potencies (IC50s) for amylin and calcitonin were adjusted to unbound values by taking into account the albumin concentration in the assay and fraction unbound data, according to an established method (Wan H and Bergström F (2007), High Throughput Screening of Drug-Protein Binding in Drug Discovery, Journal of Liquid Chromatography & Related Technologies, 30:5, 681-700; doi: 10.1080/10826070701190989). Finally, the target engagement was calculated as the unbound Cmax divided by the unbound IC50, both for amylin and calcitonin. […] Uncertainty of parameter estimates was determined by bootstrapping, sampling single measurements randomly with replacement within each experiment (N=500). […]

AMY3R/CTR [2] = assay: Relative potency ratio, cAMP accumulation assays with 0.1% BSA, rat receptors; format: cell-based; settings: 0.1% bovine serum albumin, n ≥ 5; potencies relative to pramlintide 100%
Method: Target engagement was estimated in the following way for each compound. The maximum concentration (Cmax) after subcutaneous injection was measured in separate rat pharmacokinetic studies and was dose-adjusted to the tested dose levels when appropriate, assuming dose linearity. Plasma protein binding was determined in vitro using 3B Pharmaceutical's Escalate Equilibrium Shift Assay or an in-house Surface Plasmon Resonance (SPR) assay. Peptide in vitro potency was determined via HTRF CAMP accumulation assay using HEK293 cells recombinantly expressing the rat calcitonin receptor or rat amylin receptor (calcitonin receptor plus RAMP3) in saline buffer containing 0.1% bovine serum albumin. The in vitro potencies (IC50s) for amylin and calcitonin were adjusted to unbound values by taking into account the albumin concentration in the assay and fraction unbound data, according to an established method (Wan H and Bergström F (2007), High Throughput Screening of Drug-Protein Binding in Drug Discovery, Journal of Liquid Chromatography & Related Technologies, 30:5, 681-700; doi: 10.1080/10826070701190989). Finally, the target engagement was calculated as the unbound Cmax divided by the unbound IC50, both for amylin and calcitonin. The Emax model was defined as aversion=E0+Emax×(ENG^h/(ENG^h+ED50^h)), where E0 is the baseline aversion, Emax is the maximum induced aversion, ENG is the receptor engagement, and h is the slope (Hill) parameter. Parameter estimation was performed according to a maximum likelihood approach with an additive error model, incorporating data from all compounds simultaneously. Uncertainty of parameter estimates was determined by bootstrapping, sampling single measurements randomly with replacement within each experiment (N=500). Numeric analyses were performed in MATLAB (R2023b; The MathWorks, Natick, MA). The aversion data are given as mean and standard error (N=9-11 per group). In this experiment, the LAA/SARA1 was that of SEQ ID NO: 11, SARA2 was eloralintide, DACRA1 was cagrilintide, and DACRA2 was petrelintide.

AMY3R/CTR [3] = assay: Relative potency ratio, cAMP accumulation assays with 0.1% BSA, human receptors; format: cell-based; settings: 0.1% bovine serum albumin, n ≥ 5; potencies relative to pramlintide 100%
[4] = target: T2, rat amylin receptor (calcitonin receptor plus RAMP3) (rat, UniProt P32214 25-516; Q9JJ73 23-147); assay: cell-based or functional assay
T2 sequence (looked up) 1: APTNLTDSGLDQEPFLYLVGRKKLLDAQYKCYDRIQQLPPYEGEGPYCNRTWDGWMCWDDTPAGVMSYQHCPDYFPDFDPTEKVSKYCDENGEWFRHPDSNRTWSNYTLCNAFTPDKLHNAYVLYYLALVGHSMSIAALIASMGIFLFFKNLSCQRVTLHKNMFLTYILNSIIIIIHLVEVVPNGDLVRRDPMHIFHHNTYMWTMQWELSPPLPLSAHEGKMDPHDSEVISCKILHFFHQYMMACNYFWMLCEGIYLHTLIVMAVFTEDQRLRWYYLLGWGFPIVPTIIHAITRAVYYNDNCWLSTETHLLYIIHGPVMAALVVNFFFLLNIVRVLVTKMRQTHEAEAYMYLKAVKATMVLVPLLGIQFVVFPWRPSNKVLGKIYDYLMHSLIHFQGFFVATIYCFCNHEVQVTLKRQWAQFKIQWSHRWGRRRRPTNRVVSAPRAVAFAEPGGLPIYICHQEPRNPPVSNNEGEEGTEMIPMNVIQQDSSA
T2 sequence (looked up) 2: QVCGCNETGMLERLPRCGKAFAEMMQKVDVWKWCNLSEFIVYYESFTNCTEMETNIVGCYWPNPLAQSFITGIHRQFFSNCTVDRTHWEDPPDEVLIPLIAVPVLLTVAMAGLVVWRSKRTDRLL

[5] = target: human amylin receptor 3 (hAMY3R; complex of hCTR and hRAMP3) (human, UniProt P30825 2-629; O60896 24-148, limits assumed); assay: cell-based or functional assay
Sequence of human amylin receptor 3 (hAMY3R; complex of hCTR and hRAMP3) (P30825 2-629 limits assumed, chain 1 of 2): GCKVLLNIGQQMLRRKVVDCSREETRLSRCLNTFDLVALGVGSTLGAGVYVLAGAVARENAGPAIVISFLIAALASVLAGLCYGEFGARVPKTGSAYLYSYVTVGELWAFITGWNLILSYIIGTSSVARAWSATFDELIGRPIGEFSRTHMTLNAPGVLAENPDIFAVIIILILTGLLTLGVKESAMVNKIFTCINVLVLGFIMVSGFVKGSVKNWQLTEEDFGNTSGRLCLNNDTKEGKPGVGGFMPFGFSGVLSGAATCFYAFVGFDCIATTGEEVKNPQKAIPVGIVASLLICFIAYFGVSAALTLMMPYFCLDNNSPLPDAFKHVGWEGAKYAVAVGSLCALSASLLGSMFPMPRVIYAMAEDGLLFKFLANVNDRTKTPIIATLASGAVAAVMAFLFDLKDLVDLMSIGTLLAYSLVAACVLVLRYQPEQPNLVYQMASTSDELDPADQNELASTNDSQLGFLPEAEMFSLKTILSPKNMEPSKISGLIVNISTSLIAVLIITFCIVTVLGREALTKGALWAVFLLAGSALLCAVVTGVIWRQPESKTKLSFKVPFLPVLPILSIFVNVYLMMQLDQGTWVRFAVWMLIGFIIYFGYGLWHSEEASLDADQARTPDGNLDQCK
Sequence of human amylin receptor 3 (hAMY3R; complex of hCTR and hRAMP3) (O60896 24-148 limits assumed, chain 2 of 2): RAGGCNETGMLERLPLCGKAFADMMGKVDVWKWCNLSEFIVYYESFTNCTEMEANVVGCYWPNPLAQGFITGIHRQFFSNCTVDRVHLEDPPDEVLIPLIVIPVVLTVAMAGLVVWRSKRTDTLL

Row | Molecule | BW reduction compared to vehicle ([1]; 1 nmol/kg) [%] | reduction of cumulative food intake ([1]; 1 nmol/kg) | BW reduction compared to vehicle ([1]; 3 nmol/kg) [%] | reduction of cumulative food intake ([1]; 3 nmol/kg) | BW reduction compared to vehicle ([1]; 10 nmol/kg) [%] | reduction of cumulative food intake ([1]; 10 nmol/kg) | BW reduction compared to vehicle ([1]; 20 nmol/kg) [%] | reduction of cumulative food intake ([1]; 20 nmol/kg) | fat-mass loss ([1]; end of study, 10 nmol/kg) [g] | proportion of body weight loss that was fat-mass specific ([1]; end of study, 10 nmol/kg) [%] | proportion of body weight loss that was fat-mass specific ([1]; end of study, 20 nmol/kg) [%] | lean mass ([1]; end of study, FIG. 8B) | calcitonin engagement, fold more than LAA (rat calcitonin receptor) | Relative potency ratio (AMY3R/CTR), Rat (AMY3R/CTR [2]) | Relative potency ratio (AMY3R/CTR), Human (AMY3R/CTR [3]) | Relative potency ratio (AMY3R/CTR), Rat; cAMP accumulation assay, 0.1% BSA [4] [ratio] | Relative potency ratio (AMY3R/CTR), Human; cAMP accumulation assay, 0.1% BSA [5] [ratio]
1 | cagrilintide [DACRA] | −3±0.6 | −7.1±2.1 % of vehicle | −5.3±1.1 | −16±2.5 % of vehicle | −8.8±1.4 | −23.9±3.5 % of vehicle | −11.6±0.9 | −23.7±1.1 % of vehicle | -15.5 ± 6.0 | 54 | 61 | Lean mass was preserved in the LAA groups, unlike in the DACRA groups | 2-3 fold | 0.01 | 0.08 | – | –
2 | B1 | – | – | – | – | – | – | – | – | – | – | – | – | – | – | – | 1.6 | 0.9
3 | B2 | – | – | – | – | – | – | – | – | – | – | – | – | – | – | – | 1 | 1
